# Test results published in ChEMBL document CHEMBL1138834, “Zn2+-chelating motif-tethered short-chain fatty acids as a novel class of histone deacetylase inhibitors” (J Med Chem, 2004).
# Test system: DU-145
# Experiment: Effect of HTPB on DU-145 Cell viability; high degree of sensitivity, Range 0.5-1
# Type: functional, cell-based
# Details: Homo sapiens
row,IC50 [µM],Compound
1,1,O=C(CCCc1ccccc1)Nc1ccc(C(=O)NO)cc1

# Biological target: Histone deacetylase
# Experiment: Inhibition of histone deacetylase (HDAC) activity in DU-145 nuclear extracts
# Type: protein assay, Homo sapiens
# Details: not given
row,Compound,IC50 [µM]
1,Nc1ccccc1NC(=O)c1ccc(CNC(=O)Cc2ccccc2)cc1,5.2
2,O=C(CCc1ccc(NC(=O)CCCc2ccccc2)cc1)NO,0.53
3,CCCC(=O)Nc1ccc(CCC(=O)NO)cc1,1.6
4,CCCC(=O)Nc1ccc(C(=O)NO)cc1,1.5
5,CCCC(=O)NCc1ccc(C(=O)NO)cc1,3.6
6,O=C(CCCc1ccccc1)Nc1ccc(C(=O)NO)cc1,0.044
7,O=C(Cc1ccccc1)NCc1ccc(C(=O)NO)cc1,2.5
8,O=C(CCCc1ccccc1)NCc1ccc(C(=O)NO)cc1,1.2
9,O=C(Cc1ccccc1)Nc1ccc(C(=O)NO)cc1,0.11
10,Nc1ccccc1NC(=O)c1ccc(CNC(=O)CCCc2ccccc2)cc1,4.3

# Further lines, results first:
row,IC50 [µM],Compound
1,80,CCCC(CCC)C(=O)Nc1ccc(CC(=O)Nc2ccccc2N)cc1
2,5,CCCC(CCC)C(=O)Nc1ccc(CCC(=O)NO)cc1
3,0.67,O=C(CCc1ccc(NC(=O)Cc2ccccc2)cc1)NO
4,6,CCCC(=O)NCc1ccc(C(=O)Nc2ccccc2N)cc1

# Biological target: Histone deacetylase
# Experiment: Inhibitory concentration against histone deacetylase (HDAC); Value ranges from 10-20 uM
# Type: protein assay
# Details: not given
row,IC50 [µM],Compound
1,< 20,CCCC(CCC)C(=O)Nc1ccc(/C=C/C(=O)NO)cc1
2,< 20,CCCC(CCC)C(=O)Nc1ccc(C(=O)Nc2ccccc2N)cc1
3,< 20,CCCC(CCC)C(=O)Nc1ccc(/C=C/C(=O)Nc2ccccc2N)cc1

# Biological target: Histone deacetylase
# Experiment: Inhibitory concentration against histone deacetylase (HDAC); Value ranges from 5-8 uM
# Type: protein assay
# Details: not given
row,IC50 [µM],Compound
1,< 8,CCCC(CCC)C(=O)Nc1ccc(C(=O)NO)cc1
2,< 8,CCCC(CCC)C(=O)NCc1ccc(C(=O)NO)cc1
3,< 8,CCCC(CCC)C(=O)NCc1ccc(C(=O)Nc2ccccc2N)cc1

# Biological target: Histone deacetylase
# Experiment: Inhibitory concentration against histone deacetylase (HDAC); Value ranges from 5-80 uM
# Type: protein assay
# Details: not given
row,IC50 [µM],Compound
1,< 80,CCCC(CCC)C(=O)Nc1ccc(CC(=O)NO)cc1
2,< 80,CCCC(CCC)C(=O)Nc1ccc(CCC(=O)Nc2ccccc2N)cc1
